In patent US20240009263A1, “COMPOUNDS FOR TREATING ENVELOPED VIRUS INFECTIONS” (priority 2020, published 2024):
Like-named read-outs stand apart in the source and are kept apart here. Non-standard residues stand in square brackets, D forms with d. Residues, ends and D or L forms follow the SMILES beside them. *: point of attachment. Nva = CCC[C@H](N)C(=O)O; Cbz = O=C(OCc1ccccc1)*

Experiments:
[1] = tested on: SARS-CoV-2 strain BavPat1; experiment: microbe, parasite or virus in culture; format: cell-based; conditions: Severe acute respiratory syndrome coronavirus 2; VeroE6-TMPRSS2+ cells, pilot study
[2] = tested on: SARS-CoV-2 strain BavPat1; conditions: Vero-E6 cells
[3] = in vitro; conditions: African green monkey
[4] = in vitro; conditions: human
[5] = tested on: SARS-CoV-2 strain BavPat1; experiment: microbe, parasite or virus in culture; conditions: Severe acute respiratory syndrome coronavirus 2, Vero C1008, 48 h
[6] = tested on: SARS-CoV-2 strain BavPat1; experiment: SARS-CoV-2 replication inhibition in Caco-2 cells (viral RNA RT-qPCR); conditions: for SI = CC50/EC50: Caco-2 cells; for EC50 / EC90: Severe acute respiratory syndrome coronavirus 2, Caco-2, 48 h
[7] = Cytotoxicity in VeroE6 cells (CellTiter Blue); conditions: African green monkey

CC(C)C[C@@H](C=O)NC(=O)[C@H](CC(C)C)NC(=O)[C@H](CC(C)C)NC(=O)OCc1ccccc1 [Compound 1] (Cbz-Leu-Leu-Leu-aldehyde)
EC50 [1]: 850 nM
EC90 [1]: 3300 nM
SI = CC50/EC50 [2]: 22.8
balance between virus inhibition and cytotoxicity (selectivity index), in words [2]: advantageous balance
CC50 at 2 days [3]: 2790 nM
CC50 at 2 days [4]: 230 nM
EC50 [5]: 120 nM
EC90 [5]: 500 to 1000 nM
SI = CC50/EC50 [6]: 1.89
EC50 [6]: 120 nM
EC90 [6]: 130 nM

CCC[C@@H](C=O)NC(=O)[C@H](CC(C)C)NC(=O)[C@H](CC(C)C)NC(=O)OCc1ccccc1 [Compound 2] (Cbz-Leu-Leu-[Nva]-aldehyde)
SI = CC50/EC50 [2]: >33.3
balance between virus inhibition and cytotoxicity (selectivity index), in words [2]: best selectivity index
CC50 at 2 days [3]: > 2000 nM
CC50 at 2 days [4]: 450 nM
EC50 [5]: 60 nM
EC90 [5]: 160 nM
SI = CC50/EC50 [6]: 3.50
EC50 [6]: 130 nM
EC90 [6]: 630 nM

CC(=O)N[C@@H](CC(C)C)C(=O)N[C@@H](CC(C)C)C(=O)N[C@H](C=O)CC(C)C [Compound 3] (Ac-Leu-Leu-Leu-aldehyde)
SI = CC50/EC50 [2]: >45.2
balance between virus inhibition and cytotoxicity (selectivity index), in words [2]: best selectivity index
CC50 at 2 days [3]: 13600 nM
EC50 [5]: < 300 nM
EC90 [5]: 1570 nM

CC(C)C[C@@H](C=O)NC(=O)[C@H](CC(C)C)NC(=O)[C@H](Cc1ccccc1)NC(=O)OCc1ccccc1 [Compound 4] (Cbz-Phe-Leu-Leu-aldehyde)
EC50 [1]: > 2000 nM
EC90 [1]: > 2000 nM
SI = CC50/EC50 [2]: 49.69
balance between virus inhibition and cytotoxicity (selectivity index), in words [2]: best selectivity index
CC50 at 2 days [3]: 6460 nM
EC50 [5]: 130 nM
EC90 [5]: 600 nM

CC(C)C[C@H](NC(=O)OCc1ccccc1)C(=O)N[C@@H](CC(C)C)C(=O)N[C@H](C=O)Cc1ccccc1 [Compound 5] (Cbz-Leu-Leu-Phe-aldehyde)
EC50 [1]: 1780 nM
EC90 [1]: 2300 nM
SI = CC50/EC50 [2]: >33.3
balance between virus inhibition and cytotoxicity (selectivity index), in words [2]: best selectivity index
CC50 at 2 days [3]: > 2000 nM
CC50 at 2 days [4]: 480 nM
EC50 [5]: 60 nM
EC90 [5]: 1930 nM
SI = CC50/EC50 [6]: 5.13
EC50 [6]: 90 nM
EC90 [6]: 470 nM

CC(C)C[C@@H](C=O)NC(=O)[C@H](Cc1ccccc1)NC(=O)[C@H](CC(C)C)NC(=O)OCc1ccccc1 [Compound 6] (Cbz-Leu-Phe-Leu-aldehyde)
EC50 [1]: 140 nM
EC90 [1]: > 2000 nM
SI = CC50/EC50 [2]: 12.92
balance between virus inhibition and cytotoxicity (selectivity index), in words [2]: best selectivity index
CC50 at 2 days [3]: 1680 nM
EC50 [5]: 310 nM
EC90 [5]: 11200 nM

CC(C)C[C@@H](C=O)NC(=O)[C@H](CC(C)C)NC(=O)[C@H](CC(C)C)NC(=O)c1cnccn1 [Compound 7]
SI = CC50/EC50 [2]: >2.94
balance between virus inhibition and cytotoxicity (selectivity index), in words [2]: advantageous balance
EC50 [5]: 680 nM
EC90 [5]: 1930 nM
CC50 at 2 days [7]: > 2000 nM

CC(C)C[C@@H](C=O)NC(=O)[C@H](CC(C)C)NC(=O)[C@H](CC(C)C)NC(=O)Cc1ccc(F)cc1F [Compound 8]
SI = CC50/EC50 [2]: >3.84
balance between virus inhibition and cytotoxicity (selectivity index), in words [2]: advantageous balance
CC50 at 2 days [3]: > 2000 nM
EC50 [5]: 520 nM
EC90 [5]: 1280 nM

CC(C)C[C@H](NC(=O)[C@H](Cc1ccccc1)NC(=O)c1cnccn1)B(O)O [Compound 9, reference compound]
SI = CC50/EC50 [2]: 0.22
balance between virus inhibition and cytotoxicity (selectivity index), in words [2]: not favourable
CC50 at 2 days [3]: 230 nM
EC50 [5]: 1050 nM
EC90 [5]: 21500 nM

CCC(CC)COC(=O)[C@H](C)N[P@](=O)(OC[C@H]1O[C@@](C#N)(c2ccc3c(N)ncnn23)[C@H](O)[C@@H]1O)Oc1ccccc1 [Rem, Remdesivir, reference compound]
EC90 [1]: 1660 nM
EC50 [5]: 2180 nM
EC90 [5]: 2450 nM
